# Results published in patent publication US7348347B2, “Substituted 4,5,6,7-tetrahydrobenzthiazol-2-ylamine compounds” (Gruenenthal GmbH, priority 2004, dated 2008).
# Molecular target: T1, NA transporter (Rattus norvegicus, UniProt Q63380)
# T1 construct: from tissue; host or cells: rat brain synaptosomes (P2 fraction) from hypothalamus
# Assay: Inhibition of noradrenaline uptake in rat brain synaptosomes
# Type: biochemical
# Details: 10 μM; rat synaptosomes (hypothalamus), [3H]-NA
# Experimental: II. […] For in vitro studies, synaptosomes of rat brain areas are freshly isolated, as described in the article “The isolation of nerve endings from brain” by E. G. Gray and […]. Anatomy 96, pages 79-88, 1962. The relevant literature reference is enclosed herein by reference and is to be regarded as part of the disclosure. […] The homogenate is centrifuged at 4° C. for 10 minutes at 1000 g. […] The respective uptake was measured in a 96 well microtiter plate. The volume was 250 μL and the incubation was carried out at room temperature (ca 20-25° C.) under a blanket of oxygen. […] The 96 samples through were then filtered through a Unifilter GF/B® microtiter plate (Packard) and washed with 200 mL of incubated buffer with the aid of a “Brabdel Cell-Harvester MPXRI 96T”. The Unifilter GF/B plate was dried at 55° C. over a period of 1 h. The plate was then sealed with a back seal® (Packard) and there were then added 35 μL of scintillant fluid per well (Ultima Gold, Packard). Following sealing with a top seal® (Packard) and following adjustment of the equilibrium (approximately over a period of 5 h), the radioactivity is determined in a 1450 Microbeta® (Wallac). […] The amount of protein used in the above determination corresponded to the values known from the literature, such as is described in “Protein measurement with the folin phenol reagent”, Lowry et al., J. Biol. Chem., 193, 265-275, 1951. A detailed description of the method is disclosed in the literature, for example, in […], and B. […] The relevant literature references are incorporated herein by reference and are to be regarded as part of the disclosure.
# T1 sequence (Q63380 1-617): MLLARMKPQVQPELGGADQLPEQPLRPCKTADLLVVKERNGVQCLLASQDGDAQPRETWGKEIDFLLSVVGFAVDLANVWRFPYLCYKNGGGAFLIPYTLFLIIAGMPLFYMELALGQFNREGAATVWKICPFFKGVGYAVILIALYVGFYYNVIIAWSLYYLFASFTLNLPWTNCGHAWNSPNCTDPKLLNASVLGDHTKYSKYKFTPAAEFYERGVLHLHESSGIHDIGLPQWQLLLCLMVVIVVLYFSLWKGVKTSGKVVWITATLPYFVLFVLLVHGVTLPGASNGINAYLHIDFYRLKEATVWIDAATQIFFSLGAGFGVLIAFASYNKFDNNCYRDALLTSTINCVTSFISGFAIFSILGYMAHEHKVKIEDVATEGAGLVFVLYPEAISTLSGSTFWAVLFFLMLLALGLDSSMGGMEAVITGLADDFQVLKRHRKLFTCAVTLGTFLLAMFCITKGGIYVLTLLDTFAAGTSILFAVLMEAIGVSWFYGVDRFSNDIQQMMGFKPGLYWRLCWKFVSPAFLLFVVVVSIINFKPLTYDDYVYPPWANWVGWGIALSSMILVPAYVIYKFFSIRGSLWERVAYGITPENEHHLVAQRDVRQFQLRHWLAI
row,Compound,% Inhibition of NA uptake [10 μM] [%]
1,"CC(C(=O)Nc1nc2c(s1)CCCC2C(=O)NC1CCN(Cc2ccc(Oc3ccccc3)cc2)C1)c1ccccc1 (stereo not shown) [Example 15, 2-(2-Phenylpropionylamino)-4,5,6,7-tetrahydrobenzthiazol-4-carboxylic acid[1-(4-phenoxybenzyl)pyrrolidin-3-yl]amide]",91
2,"CC(C(=O)Nc1nc2c(s1)CCCC2C(=O)NCC1CCN(Cc2ccccc2OCc2ccccc2)C1)c1ccccc1 (stereo not shown) [Example 36, 2-(2-Phenylpropionylamino)-4,5,6,7-tetrahydrobenzthiazol-4-carboxylic acid[1-(2-benzyloxybenzyl)pyrrolidin-3-yl]methylamide]",62
3,"N#Cc1ccccc1N1CCN(C(=O)C2CCCc3sc(NC(=O)CCc4ccccc4)nc32)CC1 (stereo not shown) [Example 77, N-{4-[4-(2-Cyan-phenyl)piperazin-1-carbonyl]-4,5,6,7-tetrahydrobenzthiazol-2-yl}-3-phenylpropionamide]",44

# Next, values leading:
row,% Inhibition of NA uptake [10 μM] [%],Compound
1,78,"CC(=O)c1ccc(N2CCN(C(=O)C3CCCc4sc(NC(=O)c5ccco5)nc43)CC2)cc1 (stereo not shown) [Example 8, Furan-2-carboxylic acid{4-[4-(4-acetylphenyl)piperazin-1-carbonyl]-4,5,6,7-tetrahydrobenzthiazol-2-yl}amide]"
2,47,"N#Cc1ccccc1N1CCN(C(=O)C2CCCc3sc(NC(=O)c4ccco4)nc32)CC1 (stereo not shown) [Example 47, Furan-2-carboxylic acid{4-[4-(2-cyan-phenyl)piperazin-1-carbonyl]-4,5,6,7-tetrahydrobenzthiazol-2-yl]-amide]"
3,72,"CCCCCC(=O)Nc1nc2c(s1)CCCC2C(=O)N1CCN(c2ccccc2F)CC1 (stereo not shown) [Example 52, Hexanoic acid{4-[4-(2-fluorophenyl)piperazin-1-carbonyl]-4,5,6,7-tetrahydrobenzthiazol-2-yl}amide]"

# Same assay, conditions: 10 μM; rat synaptosomes (hypothalamus), [3H]-NA; read-out: % Inhibition of NA uptake [10 μM]
row,Compound,inhibition at 10 µM [%]
1,"COc1ccc(N2CCN(C(=O)C3CCCc4sc(NC(=O)c5ccccc5)nc43)CC2C)cc1 (stereo not shown) [Example 7, N-{4-[4-(4-Methoxyphenyl)-3-methylpiperazin-1-carbonyl]-4,5,6,7-tetrahydrobenzthiazol-2-yl]-benzamide]",48
2,"CN(C(=O)C1CCCc2sc(NC(=O)COc3ccccc3)nc21)C1CCN(Cc2ccccc2C(F)(F)F)C1 (stereo not shown) [Example 54, 2-(2-Phenoxyacetylamino)-4,5,6,7-tetrahydrobenzthiazol-4-carboxylic acid methyl-[1-(2-trifluoromethylbenzyl)pyrrolidin-3-yl]amide]",44
3,"COc1ccccc1CC(=O)Nc1nc2c(s1)CCCC2C(=O)NCC1CCN(Cc2cc3ccccc3o2)C1 (stereo not shown) [Example 56, 2-[2-(2-Methoxyphenyl)acetylamino]-4,5,6,7-tetrahydrobenzthiazol-4-carboxylic acid (1-benzofuran-2-ylmethylpyrrolidin-3-yl)methylamide]",49
4,"COc1ccc(N2CCN(C(=O)C3CCCc4sc(NC(=O)C(C)c5ccccc5)nc43)CC2C)cc1 (stereo not shown) [Example 60, N-{4-[4-(4-Methoxyphenyl)-3-methylpiperazin-1-carbonyl]-4,5,6,7-tetrahydrobenzthiazol-2-yl}-2-phenylpropionamide]",41
5,"CC(c1ccccc1)N1CCN(C(=O)C2CCCc3sc(NC(=O)COc4ccccc4)nc32)CC1 (stereo not shown) [Example 66, 2-Phenoxy-N-{4-[4-(1-phenylethyl)piperazin-1-carbonyl]-4,5,6,7-tetrahydrobenzthiazol-2-yl}acetamide]",48
6,"COc1ccc2ccccc2c1CN1CCN(C(=O)C2CCCc3sc(NC(=O)CC(C)(C)C)nc32)CC1 (stereo not shown) [Example 79, N-{4-[4-(2-Methoxynaphthalene-1-ylmethyl)piperazin-1-carbonyl]-4,5,6,7-tetrahydrobenzthiazol-2-yl}-3,3-dimethylbutyramide]",71

# The remaining lines, values ahead:
row,inhibition at 10 µM [%],Compound
1,65,"CC(C(=O)Nc1nc2c(s1)CCCC2C(=O)NCCCN(C)C)c1ccccc1 (stereo not shown) [Example 3, 2-(2-Phenylpropionylamino)-4,5,6,7-tetrahydrobenzthiazol-4-carboxylic acid (3-dimethylaminopropyl)amide]"
2,98,"COc1cc(OC)c(CN2CCC(NC(=O)C3CCCc4sc(NC(=O)c5ccco5)nc43)C2)c(OC)c1 (stereo not shown) [Example 9, 2-[(Furan-2-carbonyl)amino]-4,5,6,7-tetrahydrobenzthiazol-4-carboxylic acid [1-(-2,4,6-trimethoxybenzyl)pyrrolidin-3-yl]amide]"
3,64,"CC(C(=O)Nc1nc2c(s1)CCCC2C(=O)N1CCN(C(C)C)CC1)c1ccccc1 (stereo not shown) [Example 10, N-[4-(4-Isopropylpiperazin-1-carbonyl)-4,5,6,7-tetrahydrobenzthiazol-2-yl]-2-phenylpropionamide]"
4,57,"O=C(C=Cc1ccco1)Nc1nc2c(s1)CCCC2C(=O)N1CCN(Cc2ccsc2)CC1 (stereo not shown) [Example 11, 3-Furan-2-yl-N-[4-(4-thiophen-3-ylmethylpiperazin-1-carbonyl)-4,5,6,7-tetrahydrobenzthiazol-2-yl]acrylamide]"
5,88,"O=C(Nc1nc2c(s1)CCCC2C(=O)NCCN1CCCCCC1)c1ccoc1 (stereo not shown) [Example 16, 2-[(Furan-3-carbonyl)amino]-4,5,6,7-tetrahydrobenzthiazol-4-carboxylic acid (2-azepan-1-ylethyl)amide]"
6,71,"CC(C(=O)Nc1nc2c(s1)CCCC2C(=O)NCCN(C)C)c1ccccc1 (stereo not shown) [Example 19, 2-(2-Phenylpropionylamino)-4,5,6,7-tetrahydrobenzthiazol-4-carboxylic acid (2-dimethylaminoethyl)amide]"
7,42,"CCN(CC)CCNC(=O)C1CCCc2sc(NC(=O)CCc3ccccc3)nc21 (stereo not shown) [Example 38, 2-(3-Phenylpropionylamino)-4,5,6,7-tetrahydrobenzthiazol-4-carboxylic acid (2-diethylaminoethyl)amide]"
8,72,"CN(C)c1ccc(CNC(=O)C2CCCc3sc(NC(=O)c4ccco4)nc32)cc1 (stereo not shown) [Example 58, 2-[(Furan-2-carbonyl)amino]-4,5,6,7-tetrahydrobenzthiazol-4-carboxylic acid 4-dimethylaminobenzylamide]"

# Molecular target: T2, 5-HT uptake (Rattus norvegicus, UniProt P31652)
# T2 construct: from tissue; host or cells: rat brain synaptosomes (P2 fraction) from marrow (medulla) and pons
# T2 sequence (P31652 whole entry): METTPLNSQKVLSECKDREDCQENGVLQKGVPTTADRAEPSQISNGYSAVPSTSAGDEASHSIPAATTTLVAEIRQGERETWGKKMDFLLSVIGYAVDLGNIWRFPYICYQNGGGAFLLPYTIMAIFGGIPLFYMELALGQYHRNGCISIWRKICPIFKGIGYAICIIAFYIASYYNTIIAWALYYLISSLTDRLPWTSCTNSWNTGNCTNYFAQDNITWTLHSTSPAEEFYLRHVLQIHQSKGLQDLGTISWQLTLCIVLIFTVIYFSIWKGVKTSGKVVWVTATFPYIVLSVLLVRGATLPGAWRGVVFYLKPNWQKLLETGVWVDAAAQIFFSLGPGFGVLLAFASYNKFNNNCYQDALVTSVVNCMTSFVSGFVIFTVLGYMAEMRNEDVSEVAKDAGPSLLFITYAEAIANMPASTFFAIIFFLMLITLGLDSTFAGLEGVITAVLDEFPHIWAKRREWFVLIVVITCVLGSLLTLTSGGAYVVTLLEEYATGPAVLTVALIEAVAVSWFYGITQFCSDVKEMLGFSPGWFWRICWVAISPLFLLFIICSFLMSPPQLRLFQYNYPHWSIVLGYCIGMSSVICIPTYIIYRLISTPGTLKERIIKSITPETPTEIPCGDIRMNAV
# Assay: Inhibition of 5-HT uptake in rat brain synaptosomes
# Type: biochemical
# Details: rat synaptosomes (medulla and pons), [3H]-5-HT
# Experimental: The relevant literature reference is enclosed herein by reference and is to be regarded as part of the disclosure.
# The homogenate is centrifuged at 4° C. for 10 minutes at 1000 g. Following subsequent centrifugation at 17,000 g for 55 minutes, the synaptosomes (P2 fraction) are obtained, which are then resuspended in 0.32 M […] (0.5 mL/100 mg of the original weight).
# The respective uptake was measured in a 96 well microtiter plate. The volume was 250 μL and the incubation was carried out at room temperature (ca 20-25° C.) under a blanket of oxygen.
# The 96 samples through were then filtered through a Unifilter GF/B® microtiter plate (Packard) and washed with 200 mL of incubated buffer with the aid of a “Brabdel Cell-Harvester MPXRI 96T”. The Unifilter GF/B plate was dried at 55° C. over a period of 1 h. The plate was then sealed with a back seal® (Packard) and there were then added 35 μL of scintillant fluid per well (Ultima Gold, Packard).
# A detailed description of the method is disclosed in the literature, for example, in M. Ch.
Compound,inhibition at 10 µM [%],% Inhibition of 5-HT uptake [10 μM] [%]
"COc1ccc(N2CCN(C(=O)C3CCCc4sc(NC(=O)c5ccccc5)nc43)CC2C)cc1 (stereo not shown) [Example 7, N-{4-[4-(4-Methoxyphenyl)-3-methylpiperazin-1-carbonyl]-4,5,6,7-tetrahydrobenzthiazol-2-yl]-benzamide]",51,
"CCOc1cc(N2CCOCC2)c(OCC)cc1NC(=O)C1CCCc2sc(NC(=O)CC(C)(C)C)nc21 (stereo not shown) [Example 80, 2-(3,3-Dimethylbutyrylamino)-4,5,6,7-tetrahydrobenzthiazol-4-carboxylic acid (2,5-diethoxy-4-morpholin-4-ylphenyl)amide]",52,
"O=C(Cc1cc(F)cc(F)c1)Nc1nc2c(s1)CCCC2C(=O)N1CCN(C(c2ccccc2)c2ccccc2)CC1 (stereo not shown) [Example 83, N-[4-(4-Benzhydrylpiperazin-1-carbonyl)-4,5,6,7-tetrahydrobenzthiazol-2-yl]-2-(3,5-difluorophenyl)acetamide]",44,
"O=C(Cc1cccs1)Nc1nc2c(s1)CCCC2C(=O)N1CCN(C(c2ccccc2)c2ccccc2)CC1 (stereo not shown) [Example 84, N-[4-(4-Benzhydrylpiperazin-1-carbonyl)-4,5,6,7-tetrahydrobenzthiazol-2-yl]-2-thiophen-2-ylacetamide]",53,
"CC(C)(C)CC(=O)Nc1nc2c(s1)CCCC2C(=O)N1CCN(c2ccc(C(F)(F)F)cn2)CC1 (stereo not shown) [Example 86, 3,3-Dimethyl-N-{4-[4-(5-trifluoromethylpyridin-2-yl)piperazin-1-carbonyl]-4,5,6,7-tetrahydrobenzthiazol-2-yl}butyramide]",54,

# Results, then the compound that gave them:
inhibition at 10 µM [%],% Inhibition of 5-HT uptake [10 μM] [%],Compound
61,,"CC(C(=O)Nc1nc2c(s1)CCCC2C(=O)NCCCN(C)C)c1ccccc1 (stereo not shown) [Example 3, 2-(2-Phenylpropionylamino)-4,5,6,7-tetrahydrobenzthiazol-4-carboxylic acid (3-dimethylaminopropyl)amide]"
,89,"CC(=O)c1ccc(N2CCN(C(=O)C3CCCc4sc(NC(=O)c5ccco5)nc43)CC2)cc1 (stereo not shown) [Example 8, Furan-2-carboxylic acid{4-[4-(4-acetylphenyl)piperazin-1-carbonyl]-4,5,6,7-tetrahydrobenzthiazol-2-yl}amide]"
53,,"COc1cc(OC)c(CN2CCC(NC(=O)C3CCCc4sc(NC(=O)c5ccco5)nc43)C2)c(OC)c1 (stereo not shown) [Example 9, 2-[(Furan-2-carbonyl)amino]-4,5,6,7-tetrahydrobenzthiazol-4-carboxylic acid [1-(-2,4,6-trimethoxybenzyl)pyrrolidin-3-yl]amide]"
42,,"CC(C(=O)Nc1nc2c(s1)CCCC2C(=O)N1CCN(C(C)C)CC1)c1ccccc1 (stereo not shown) [Example 10, N-[4-(4-Isopropylpiperazin-1-carbonyl)-4,5,6,7-tetrahydrobenzthiazol-2-yl]-2-phenylpropionamide]"
48,,"CCOc1ccccc1C(=O)Nc1nc2c(s1)CCCC2C(=O)N1CCN(c2ccccc2Cl)CC1 (stereo not shown) [Example 85, N-{4-[4-(2-Chlorophenyl)piperazin-1-carbonyl]-4,5,6,7-tetrahydrobenzthiazol-2-yl}-2-ethoxybenzamide]"
41,,"O=C(CC1CCCCC1)Nc1nc2c(s1)CCCC2C(=O)N1CCN(C(c2ccccc2)c2ccccc2)CC1 (stereo not shown) [Example 88, N-[4-(4-Benzhydrylpiperazin-1-carbonyl)-4,5,6,7-tetrahydrobenzthiazol-2-yl]-2-cyclohexylacetamide]"
